From patent US7888367B2, “1-[2′,3′ -dideoxy-3′ C-(hydroxymethyl)—beta-D-erythro-pentofuranosyl] cytosine derivatives as HIV” (Medivir AB, priority 2005, dated 2011)

Key:
[1] = tested on: HIV-1 primer rescue-related TAM patient isolates 20 and 21; test: PhenoSense HIV assay, Example 2a; assay type: cell-based; settings: for potency against patient virus compared to wildtype: isolates 20 and 21
Protocol: (§1) The susceptibility of the compounds of the invention, measured as the plasma metabolite 2′,3′-dideoxy, 3′-C-hydroxymethyl-β-D-erythropentofuranosylcytosine on HIV-1 isolates from patient plasma samples that bear typical TAM primer rescue mutant resistant genotypes is determined by the commercially available PhenoSense HIV assay (described in Petropoulos, C J et al., (2000) Antimicrob. Agents Chemother. 44:920-928 and performed by ViroLogics, Inc). The assay is performed by amplifying the protease (PR)—RT segment of the HIV pol gene from patient plasma and inserting the amplification products into a modified HIV-1 vector derived from an NL4-3 molecular clone.
(§2) Viral stocks are prepared by co-transfecting 293 cell cultures with recombinant viral DNA vector and an expression vector that produces the amphotropic murine leukemia virus envelope proteins. Pseudotyped virus particles are harvested from the transfected cell cultures and are used to infect fresh 293 cell cultures. The recombinant viral DNA contains a luciferase gene cassette within the HIV env gene region and the production of luciferase in target cells is dependent on the completion of one round of virus replication. Drug susceptibility is measured by adding serial concentrations of the compound of the invention and the reference compounds to the cells. Drugs that inhibit virus replication reduce luciferase signal in a dose-dependent manner, providing a quantitative measure of drug susceptibility.
Wild-type HIV virus is used as the reference. Here, the inhibition of the patient isolate 20 and 21 strains is expressed as the fold change in reduction of susceptibility to the treatment drug as compared to parallel runs of the reference. The following antiviral drugs were tested: AZT, 3TC, TNF, ABC, d4T, FTC and the compound of the invention, as the plasma metabolite 2′,3′-dideoxy, 3′-C-hydroxymethyl-β-D-erythropentofuranosylcytosine.

[2] = tested on: HIV-1 isolate 4 (K65R+M184V discriminative mutant); test: PhenoSense HIV assay, Example 2d; assay type: cell-based
[3] = tested on: HIV-1 TAM primer rescue-related patient isolate 19 (M184V + TAMs); test: PhenoSense HIV assay, Example 2b; assay type: cell-based
Protocol: as §1
as §2, with “The recombinant viral DNA contains a luciferase gene cassette within the HIV env gene region and the production of luciferase in target cells is dependent on the completion of one round of virus replication.” left out, “susceptibility. […]” for “susceptibility.”

[4] = tested on: HIV-1 primer rescue-related patient isolates 31, 32 and 35 (T69S+XX+TAMs); test: PhenoSense HIV assay, Example 2c; assay type: cell-based
Protocol: as §1, §2
Continuous challenge of patients with antiretroviral agents results in the emergence of MDR. A T69S mutation with a 6-bp insertion between amino acids 68 and 70 in the finger region of RT is often seen in combination with various forms of TAMs and contributes to an enhanced primer rescue activity. A cluster of MDR (with different forms of amino acid insertion(s)) in combination with TAM was chosen, as outlined in Table 3.

[5] = tested on: TAM primer rescue-related resistant HIV-1 isolates in PBMC; test: Drug susceptibility assay in PBMC culture (p24 antigen); assay type: cell-based
Protocol: The antiviral performance of the compound of the invention against additional TAM primer rescue-related resistant HIV isolates was assayed in a PBMC culture. Isolates of HIV-1 were generated and expanded to high titer by co-cultivation of infected patient PBMC with PHA-stimulated donor PBMC (Virology Manual for ACTG HIV Laboratories). The cell-free supernatants were harvested, sequenced, and stored in aliquots at −70° C. for drug susceptibility assays.
In vitro drug susceptibility assays were performed using a modified ACTG/DOD consensus method (Virology Manual for ACTG HIV laboratories). PBMCs were pre-infected with viral stocks for 4 hrs at 37° C. in a humidified atmosphere of 5% CO2 following 4 hr incubation. Infected cells were washed twice in media and pipetted into a microtiter plate with eight serial drug dilutions. Each well contained 100,000 pre-infected PBMC and all drug dilutions were made with cell culture medium. The drug dilutions were chosen to span the 50% inhibitory concentration (IC50) for each single drug. Control wells containing cells and virus were co-incubated on each plate. After a 7-day incubation at 37° C. in a […] atmosphere of 5% CO2, viral growth was determined using a p24 antigen assay on supernatants (Abbott Laboratories, Chicago, USA). The percent inhibition of viral growth compared to the control well, which contained no drug, was calculated and expressed as fold changes (reductions in compounds susceptibility) compared to the control well. The reference compound AZT was run in parallel with the compound of the invention.
A cluster of representative of primer rescue-related mutant virus was selected that harbors the essential feature of primer rescue-related TAM resistant RT mutations. Strains with mutations at position M41L, D67N, K70R, L210W, T215Y/F and K219Q/E in various combinations with or without discriminative mutant M184V were used as indicated in Table 4.

[6] = reference compounds (markers) of the permeability assay; cited from earlier work

Structure (SMILES) | potency against patient virus compared to wildtype [1] | FC value (fold change in susceptibility) [2] | % absorption in man [6] | also measured
Nc1nc(NC2CC2)c2ncn([C@H]3C=C[C@@H](CO)C3)c2n1 [ABC, abacavir] | lost potency | > 9.0 | – | –
Nc1ccn([C@H]2C[C@H](CO)[C@@H](CO)O2)c(=O)n1 [2′,3′-dideoxy, 3′-C-hydroxymethyl-β-D-erythropentofuranosylcytosine] | – | 3.88 | – | fold reduction in susceptibility vs wild-type HIV ([1]; isolate 20): 1.0 fold; fold reduction in susceptibility vs wild-type HIV ([1]; isolate 21): < 1.0 fold; fold difference in susceptibility compared to wild type HIV [3]: 1.78 fold; fold change in susceptibility ([4]; isolate 32): 2.79 fold; fold change in susceptibility ([4]; isolate 35): 4.29 fold; change in drug susceptibility compared with six reference antivirals ([4]; isolates 31, 32 and 35): smallest change in drug susceptibility; highest FC value over all 8 isolates ([5]; all 8 isolates of Table 4): ≤ 2.7
Cc1cn([C@H]2C=C[C@@H](CO)O2)c(=O)[nH]c1=O [d4T, stavudine] | lost potency | 0.71 | – | –
CN(Cc1cnc2nc(N)nc(N)c2n1)c1ccc(C(=O)N[C@@H](CCC(=O)O)C(=O)O)cc1 [Methotrexate] | – | – | 20% | –
N[C@@H](Cc1ccccc1)C(=O)O [L-Phenylalanine] | – | – | 100% | –
Cc1cn([C@H]2C[C@H](N=[N+]=[N-])[C@@H](CO)O2)c(=O)[nH]c1=O [AZT, zidovudine] | – | 1.11 | – | fold reduction in susceptibility vs wild-type HIV ([1]; isolates 20 and 21, isolate not specified): 451 fold; activity against the resistant virus [3]: lost activity; FC value ([5]; isolate 7086 (T215V)): 3.0; drop in FC value ([5]; most of the selected primer rescue mutants): a couple of hundred folds
OC[C@@H](O)[C@@H](O)[C@H](O)[C@H](O)CO [Mannitol] | – | – | 16% | –
C[C@H](Cn1cnc2c(N)ncnc21)OCP(=O)(O)O [TFN, tenofovir] | lost potency | – | – | –
Nc1ccn([C@@H]2CS[C@H](CO)O2)c(=O)n1 [Example 3TC, lamivudine] | – | > 200 | – | –
Nc1nc(=O)n([C@@H]2CS[C@H](CO)O2)cc1F [FTC, emtricitabine] | lost potency | > 40 | – | –
